# From PubChem BioAssay AID1918993 (Molecular Pharmacology Branch, DTP, NCI, 2023)
# “And” between values parts separate entries of the source, which are not always exact repeats. Equal entries are not always repeated.
# Test system: 233499-124-R-J3-PDC complex spheroid growth
# Test: Anticancer human tumor 233499-124-R-J3-PDC patient-derived colon adenocarcinoma cell line growth inhibition [AhR]
# Conditions: for viability, T/C: stronger effect = lower value
# From the text: Multicellular complex tumor spheroid response to aryl hydrocarbon receptor antagonists in combination with a variety of drugs and investigational agents in selected tumor cell lines
# The current study was undertaken to assess response to aryl hydrocarbon receptor antagonists in combination with standard-of-care drugs and investigational agents in solid tumor complex spheroid models. Complex spheroids include a stromal component modeled by human endothelial cells (HUVEC) and fibroblasts modeled by human mesenchymal stem cells (MSCs). The concentration ranges selected for each drug and investigational agent were based upon clinically achievable concentrations if the clinical Cmax of the agent was known.
# Compounds. The drugs and investigational agents: BAY 2416964 (NSC825713), GNF351 (NSC835774), CH-223191 (NSC835775), CPI-455 (NSC825282), aza-TdCyd (NSC777586), decitabine (NSC127716), belinostat (NSC758774), entinostat (NSC756642), pevonedistat (NSC761192), tazemetostat (NSC777109), talazoparib (NSC765396), olaparib (NSC753686), selinexor (NSC780203), nedisertib (M3814, NSC802822), bortezomib (NSC756655), venetoclax (NSC766270), doxorubicin (NSC123127), elimusertib (BAY189344, NSC800525), ceralasertib (AZD6738, NSC777638), TAK-243 (NSC785004), alisertib (NSC759677), etoposide (NSC141540), topotecan (NSC609699), eribulin (NSC707389), gemcitabine (NSC613327), carboplatin (NSC241240), cisplatin (NSC119875), and SN-38 (NSC673596) were obtained from the National Cancer Institute (NCI) Developmental Therapeutics Program Chemical Repository (32). The FDA-approved anticancer drug set is available from the Developmental Therapeutics Program at https://dtp.cancer.gov/organization/dscb/obtaining/available plates.htm. […] The stock solutions were prepared in dimethyl sulfoxide (DMSO, Sigma-Aldrich, St. Louis, MO, cat. D2650), except for the platinum compounds which were prepared in saline (Quality Biological, Gaithersburg, MD, cat. 114-055-101), at 800-fold the tested concentration and stored at -70 degrees C prior to their use. All drugs and investigational agents were tested over a range starting from a high concentration at or near the clinical Cmax and decreasing in half-log increments. If the clinical Cmax for an agent had not been determined, the highest concentration tested was 10 microM (Table 1).
# Cell Culture. All cells were maintained in an incubator at 37 degrees C and 5% CO2 with 95% humidity. The PDC lines were cultured according to standard operating procedures established by the NCI PDMR (https://pdmr.cancer.gov). Briefly, all PDCs were thawed and cultured in Matrigel-coated flasks prepared with a working solution of 1X Ham's F-12 nutrient mix, without supplementation (Invitrogen, Waltham, MA, cat. 11765054), 100 U/mL penicillin-streptomycin (Invitrogen, cat. 15140122), and 2.5% Matrigel (Corning Inc., Corning, NY, cat. 354248) for the first three passages. All PDCs were cultured in complete DMEM/F-12 media containing advanced DMEM/F-12 (Invitrogen, cat. 12634028), 4.9% defined fetal bovine serum, heat inactivated (HyClone Laboratories Inc., Logan, UT, cat. SH30070.03HI), 389 ng/mL hydrocortisone (Sigma-Aldrich, cat. H4001), 9.7 ng/mL human EGF recombinant protein (Invitrogen, cat. PHG0313), 23.4 microg/mL adenine (Sigma-Aldrich, cat. A2786), 97.3 U/mL penicillin-streptomycin (Invitrogen, cat. 15140122), 1.9 mM L-glutamine (Invitrogen, cat. 25030081), and 9.7 microM Y-27632 dihydrochloride (Tocris Bioscience, Bristol, United Kingdom, cat. 1254). The PDCs were cultured in complete DMEM/F12 media without 10 microM Y-27632 dihydrochloride for at least two passages prior to the screen. The established cell lines NCI-H1341 and […] were cultured in DMEM/F-12, HEPES (Invitrogen, cat. 11330032), 5% defined fetal bovine serum (HyClone Laboratories Inc., cat. SH30070.03), ITS premix universal culture supplement [insulin (5 microg/mL), transferrin (5 microg/mL), and selenious acid (5 ng/mL)] […]
# 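Further: spheroids exposed to agents for seven days before reading.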
structure (smiles),measurement,setting,value
Nc1ccn(C2OC(CO)C(O)C2(F)F)c(=O)n1 (configuration not stated) + Cc1cncc(-c2nc(NCCc3c[nH]c4ccccc34)c3ncn(C(C)C)c3n2)c1,IC50,"curve of first compound, second compound 0.1 µM",1780 nM
same,IC50,"curve of first compound, second compound 0.316 µM",768 nM
same,IC50,"curve of first compound, second compound 1 µM",> 10000 nM
same,IC50,"curve of first compound, second compound 3.16 µM",2970 nM
same,IC50,"curve of first compound, second compound 10 µM",> 10000 nM
same,"viability, T/C","second compound 0.1 µM, first compound 0.0316 µM",95.4%
same,"viability, T/C","second compound 0.1 µM, first compound 0.1 µM",72%
same,"viability, T/C","second compound 0.1 µM, first compound 0.316 µM",71.8%
same,"viability, T/C","second compound 0.1 µM, first compound 1 µM",50.5%
same,"viability, T/C","second compound 0.1 µM, first compound 3.16 µM",41.4%
same,"viability, T/C","second compound 0.1 µM, first compound 10 µM",47.2%
same,"viability, T/C","second compound 0.316 µM, first compound 0.0316 µM",76.5%
same,"viability, T/C","second compound 0.316 µM, first compound 0.1 µM",82.7%
same,"viability, T/C","second compound 0.316 µM, first compound 0.316 µM",68%
same,"viability, T/C","second compound 0.316 µM, first compound 1 µM",45.4%
same,"viability, T/C","second compound 0.316 µM, first compound 3.16 µM",40.1%
same,"viability, T/C","second compound 0.316 µM, first compound 10 µM",45.9%
same,"viability, T/C","second compound 1 µM, first compound 0.0316 µM",84.8%
same,"viability, T/C","second compound 1 µM, first compound 0.1 µM",81.7%
same,"viability, T/C","second compound 1 µM, first compound 0.316 µM",64%
same,"viability, T/C","second compound 1 µM, first compound 1 µM",57.6%
same,"viability, T/C","second compound 1 µM, first compound 3.16 µM",43.9%
same,"viability, T/C","second compound 1 µM, first compound 10 µM",61.9%
same,"viability, T/C","second compound 3.16 µM, first compound 0.0316 µM",74.5%
same,"viability, T/C","second compound 3.16 µM, first compound 0.1 µM",75.2%
same,"viability, T/C","second compound 3.16 µM, first compound 0.316 µM",69.2%
same,"viability, T/C","second compound 3.16 µM, first compound 1 µM",60.1%
same,"viability, T/C","second compound 3.16 µM, first compound 3.16 µM",38.6%
same,"viability, T/C","second compound 3.16 µM, first compound 10 µM",60.2%
same,"viability, T/C","second compound 10 µM, first compound 0.0316 µM",52.6%
same,"viability, T/C","second compound 10 µM, first compound 0.1 µM",44.9%
same,"viability, T/C","second compound 10 µM, first compound 0.316 µM",56%
same,"viability, T/C","second compound 10 µM, first compound 1 µM",47.3%
same,"viability, T/C","second compound 10 µM, first compound 3.16 µM",53%
same,"viability, T/C","second compound 10 µM, first compound 10 µM",51.9%
Cn1ncnc1C1c2n[nH]c(=O)c3cc(F)cc(c23)NC1c1ccc(F)cc1 (configuration not stated),"viability, T/C",compound 0.000316 µM,97.9% and 96.7% and 93.9%
same,"viability, T/C",compound 0.001 µM,108% (2×) and 81%
same,"viability, T/C",compound 0.00316 µM,108% and 106% and 97.9%
same,"viability, T/C",compound 0.01 µM,102% and 109% and 99.2%
same,"viability, T/C",compound 0.0316 µM,92.5% and 107% and 103%
same,"viability, T/C",compound 0.1 µM,96.4% and 91.3% and 92.3%
same,IC50,curve of compound,> 100 nM
